Article PMC10873978, “Novel tetrahydroisoquinolines as DHFR and CDK2 inhibitors: synthesis, characterization, anticancer activity and antioxidant properties” (BMC Chemistry, 2024)
Entries after “also recorded” stand apart in the source; their conditions may differ.

Key:
MCF7 cell line = assay: In vitro cytotoxic activity, MTT method, MCF7; type: cell-based, human; details: for IC50: Homo sapiens, MCF7, MCF7 cell line, MTT
In short: (§1)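 MTT assay: cells seeded at 10^5 cells/mL, grown 24 h at 37 °C to a monolayer, then exposed to serial tetrahydroisoquinoline concentrations at 37 °C. MTT (5 mg/mL stock) added for 1–5 h; OD read at 560 nm minus 620 nm background. Doxorubicin as positive control.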

A549 cell line = assay: In vitro cytotoxic activity, MTT method, A549; details: for IC50: Homo sapiens, read-out: IC50 ± SD
In short: as §1

[1] = DPPH scavenging antioxidant activity
Protocol: The antioxidant activity of ten compounds was determined using DPPH [32–34]. A solution 1: prepared by dissolving DPPH (0.002 g) in ethanol (50 mL etnanol). Solution 2: prepared by dissolving different weights 0.05, 0.01 g of each sample in 1 mL of DMSO then take 10 µL of each sample solution with 1 mL ethanol. Then mix 1 mL of solution 1 with 1 mL of solution 2 then vortex the resulting mixture in the dark for about 30 min. The absorbance of the mixture was measured by spectrophotometer at λmax = 517 nm against blank 1 mL absolute ethanol and compared to the ascorbic acid (Vitamin C).
Ten newly synthesized compounds were studied as in vitro antioxidants by measuring of their DPPH scavenging activity which is represented as a percentage % [32]^. Results are represented by mean ± SD of three replicates. […] The higher dose concentration of 0.05 μg/mL represents higher antioxidant activity. […] The high antioxidant activity is referred to the presence of C=O, NH2, and OH groups like ascorbic acid which can be easily oxidized and reduced and can be used as antioxidant drugs. (Fig. 8 and Table 9).

SMILES: CC(=O)C1C(c2ccc(N(C)C)cc2)c2c(C)nc(SCC(=O)Nc3ccccc3)c(C#N)c2CC1(C)O (centres unmarked) [Compound 7a, 2-[(7-Acetyl-4-cyano-1,6-dimethyl-6-hydroxy-8-(4-N,N-dimethylamino-phenyl)-5,6,7,8-tetrahydroisoquinolin-3-yl)thio]-N-phenylacetamide]
- IC50 (MCF7 cell line): 2218 ± 4 nM
- Toxicity % (MCF7 cell line; MCF7, 0.0487 µMol): -5.346%
- Viability % (MCF7 cell line; MCF7, 0.0487 µMol): 105.8%
- Toxicity % (MCF7 cell line; MCF7, 0.0975 µMol): -3.456%
- Viability % (MCF7 cell line; MCF7, 0.0975 µMol): 103.5%
- Toxicity % (MCF7 cell line; MCF7, 0.195 µMol): -2.859%
- Viability % (MCF7 cell line; MCF7, 0.195 µMol): 102.9%
- Toxicity % (MCF7 cell line; MCF7, 0.391 µMol): 8.047%
- Viability % (MCF7 cell line; MCF7, 0.391 µMol): 91.95%
- Toxicity % (MCF7 cell line; MCF7, 0.781 µMol): 23.12%
- Viability % (MCF7 cell line; MCF7, 0.781 µMol): 76.88%
- Toxicity % (MCF7 cell line; MCF7, 1.562 µMol): 33.82%
- Viability % (MCF7 cell line; MCF7, 1.562 µMol): 66.18%
- Toxicity % (MCF7 cell line; MCF7, 3.125 µMol): 52.98%
- Viability % (MCF7 cell line; MCF7, 3.125 µMol): 47.02%
- Toxicity % (MCF7 cell line; MCF7, 6.25 µMol): 71.85%
- Viability % (MCF7 cell line; MCF7, 6.25 µMol): 28.15%
- Toxicity % (MCF7 cell line; MCF7, 12.5 µMol): 91.95%
- Viability % (MCF7 cell line; MCF7, 12.5 µMol): 8.047%
- Toxicity % (MCF7 cell line; MCF7, 25 µMol): 97.39%
- Viability % (MCF7 cell line; MCF7, 25 µMol): 2.614%
- Toxicity % (A549 cell line; A549, Conc. 0.04875 µMol): 0.09882%
- Viability % (A549 cell line; A549, Conc. 0.04875 µMol): 99.9%
- Toxicity % (A549 cell line; A549, Conc. 0.0975 µMol): 0.1346%
- Viability % (A549 cell line; A549, Conc. 0.0975 µMol): 99.87%
- Toxicity % (A549 cell line; A549, Conc. 0.195 µMol): 0.168%
- Viability % (A549 cell line; A549, Conc. 0.195 µMol): 99.83%
- Toxicity % (A549 cell line; A549, Conc. 0.391 µMol): 13.91%
- Viability % (A549 cell line; A549, Conc. 0.391 µMol): 86.09%
- Toxicity % (A549 cell line; A549, Conc. 0.781 µMol): 29.94%
- Viability % (A549 cell line; A549, Conc. 0.781 µMol): 70.06%
- Toxicity % (A549 cell line; A549, Conc. 1.562 µMol): 41.33%
- Viability % (A549 cell line; A549, Conc. 1.562 µMol): 58.67%
- Toxicity % (A549 cell line; A549, Conc. 3.125 µMol): 53.33%
- Viability % (A549 cell line; A549, Conc. 3.125 µMol): 46.67%
- Toxicity % (A549 cell line; A549, Conc. 6.25 µMol): 80.11%
- Viability % (A549 cell line; A549, Conc. 6.25 µMol): 19.89%
- Toxicity % (A549 cell line; A549, Conc. 12.5 µMol): 91.33%
- Viability % (A549 cell line; A549, Conc. 12.5 µMol): 8.669%
- Toxicity % (A549 cell line; A549, Conc. 25 µMol): 96.98%
- Viability % (A549 cell line; A549, Conc. 25 µMol): 3.024%
- IC50 (A549 cell line): 1586 ± 1 nM
- DPPH scavenging, inhibition (%) ([1]; 0.01 µg/mL): 43.26 ± 0.73%
- DPPH scavenging, inhibition (%) ([1]; 0.05 µg/mL): 62.96 ± 0.73%

SMILES: CSc1nc(C)c2c(c1C#N)CC(C)(O)C(C(C)=O)C2c1ccc(N(C)C)cc1 (centres unmarked) [Compound 3, 7-Acetyl-4-cyano-1,6-dimethyl-3-methylthio-6-hydroxy-8-(4-N,N-dimethyl-aminophenyl)-5,6,7,8-tetrahydroisoquinoline]
- IC50 (MCF7 cell line): 562 ± 7 nM
- Toxicity % (MCF7 cell line; MCF7, 0.0487 µMol): 5.124%
- Viability % (MCF7 cell line; MCF7, 0.0487 µMol): 94.876%
- Toxicity % (MCF7 cell line; MCF7, 0.0975 µMol): 7.124%
- Viability % (MCF7 cell line; MCF7, 0.0975 µMol): 92.876%
- Toxicity % (MCF7 cell line; MCF7, 0.195 µMol): 8.333%
- Viability % (MCF7 cell line; MCF7, 0.195 µMol): 91.67%
- Toxicity % (MCF7 cell line; MCF7, 0.391 µMol): 38.81%
- Viability % (MCF7 cell line; MCF7, 0.391 µMol): 61.19%
- Toxicity % (MCF7 cell line; MCF7, 0.781 µMol): 66.75%
- Viability % (MCF7 cell line; MCF7, 0.781 µMol): 33.25%
- Toxicity % (MCF7 cell line; MCF7, 1.562 µMol): 82.8%
- Viability % (MCF7 cell line; MCF7, 1.562 µMol): 17.2%
- Toxicity % (MCF7 cell line; MCF7, 3.125 µMol): 91.22%
- Viability % (MCF7 cell line; MCF7, 3.125 µMol): 8.783%
- Toxicity % (MCF7 cell line; MCF7, 6.25 µMol): 95.14%
- Viability % (MCF7 cell line; MCF7, 6.25 µMol): 4.861%
- Toxicity % (MCF7 cell line; MCF7, 12.5 µMol): 97.43%
- Viability % (MCF7 cell line; MCF7, 12.5 µMol): 2.574%
- Toxicity % (MCF7 cell line; MCF7, 25 µMol): 97.06%
- Viability % (MCF7 cell line; MCF7, 25 µMol): 2.941%
- Toxicity % (A549 cell line; A549, Conc. 0.0487 µMol): 0.30%
- Viability % (A549 cell line; A549, Conc. 0.0487 µMol): 99.700%
- Toxicity % (A549 cell line; A549, Conc. 0.0975 µMol): 0.50%
- Viability % (A549 cell line; A549, Conc. 0.0975 µMol): 99.50%
- Toxicity % (A549 cell line; A549, Conc. 0.195 µMol): 0.789%
- Viability % (A549 cell line; A549, Conc. 0.195 µMol): 99.21%
- Toxicity % (A549 cell line; A549, Conc. 0.391 µMol): 5.089%
- Viability % (A549 cell line; A549, Conc. 0.391 µMol): 94.91%
- Toxicity % (A549 cell line; A549, Conc. 0.781 µMol): 23.59%
- Viability % (A549 cell line; A549, Conc. 0.781 µMol): 76.41%
- Toxicity % (A549 cell line; A549, Conc. 1.562 µMol): 38.19%
- Viability % (A549 cell line; A549, Conc. 1.562 µMol): 61.81%
- Toxicity % (A549 cell line; A549, Conc. 3.125 µMol): 53.18%
- Viability % (A549 cell line; A549, Conc. 3.125 µMol): 46.82%
- Toxicity % (A549 cell line; A549, Conc. 6.25 µMol): 70.73%
- Viability % (A549 cell line; A549, Conc. 6.25 µMol): 29.27%
- Toxicity % (A549 cell line; A549, Conc. 12.5 µMol): 89.43%
- Viability % (A549 cell line; A549, Conc. 12.5 µMol): 10.57%
- Toxicity % (A549 cell line; A549, Conc. 25 µMol): 96.45%
- Viability % (A549 cell line; A549, Conc. 25 µMol): 3.55%
- IC50 (A549 cell line): 2469 ± 6 nM
- DPPH scavenging, inhibition (%) ([1]; 0.01 µg/mL): 25.58 ± 2.20%
- DPPH scavenging, inhibition (%) ([1]; 0.05 µg/mL): 81.39 ± 3.87%
- antioxidant activity compared with Vitamin C ([1]; DPPH): higher result than Vitamin C; also recorded: higher antioxidant activity than Vitamin C
